Calls of active or inactive are those of the source. The rule behind the calls is not given here.
Tests used:
[1] = target: 5'-AMP-activated protein kinase catalytic subunit alpha-1 (Homo sapiens) (UniProt Q13131); assay: Activation of AMPKalpha in human LS 174T cells assessed as phosphorylation at T172 at 1 to 3 uM by Western blotting analysis relative to urea-3,4-diCl; format: cell-based; conditions: LS174T
[2] = test system: LS174T; assay: Inhibition of p70S6K in human LS 174T cells assessed as decrease in S6 phosphorylation by Western blotting analysis; format: cell-based
[3] = test system: LS174T; assay: Inhibition of p70S6K phosphorylation in human LS 174T cells by Western blotting analysis; format: cell-based
[4] = target: 5'-AMP-activated protein kinase catalytic subunit alpha-1 (Homo sapiens) (UniProt Q13131); assay: Activation of AMPKalpha in human LS 174T cells assessed as phosphorylation at T172 at 1 to 3 uM by Western blotting analysis; format: cell-based; conditions: LS174T
[5] = test system: SW480; assay: Cytotoxicity against human SW480 cells assessed as growth inhibition after 2 to 4 days; format: functional, cell-based
[6] = test system: LS174T; assay: Cytotoxicity against human LS 174T cells assessed as growth inhibition after 2 to 4 days; format: functional, cell-based
[7] = test system: LS174T; assay: Activation of AKT in human LS 174T cells assessed as phosphorylation at Ser473 at 3 uM by Western blotting analysis; format: cell-based

Chain of 5'-AMP-activated protein kinase catalytic subunit alpha-1 (Homo sapiens) (Q13131 whole entry, looked up): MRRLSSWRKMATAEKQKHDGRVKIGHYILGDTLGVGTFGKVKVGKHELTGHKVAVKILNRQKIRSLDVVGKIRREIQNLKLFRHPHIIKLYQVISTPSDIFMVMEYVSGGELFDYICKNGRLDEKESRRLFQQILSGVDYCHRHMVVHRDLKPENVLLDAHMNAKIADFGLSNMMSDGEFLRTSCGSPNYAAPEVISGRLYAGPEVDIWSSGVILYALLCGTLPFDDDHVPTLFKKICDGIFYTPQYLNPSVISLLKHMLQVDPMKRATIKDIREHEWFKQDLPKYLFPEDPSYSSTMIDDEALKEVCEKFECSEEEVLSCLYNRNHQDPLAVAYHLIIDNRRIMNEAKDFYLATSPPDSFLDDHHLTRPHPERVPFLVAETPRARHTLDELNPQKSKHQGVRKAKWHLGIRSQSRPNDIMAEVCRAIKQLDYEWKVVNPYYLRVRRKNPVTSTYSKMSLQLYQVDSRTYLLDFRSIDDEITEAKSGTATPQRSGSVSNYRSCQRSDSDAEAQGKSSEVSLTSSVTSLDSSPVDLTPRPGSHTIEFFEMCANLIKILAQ

| Compound | fold change (FC) [1] | other results |
| --- | --- | --- |
| O=C(Nc1ccc(SC(F)(F)F)cc1)Nc1cc(F)c(F)cc1F | 1.21 | – |
| O=C(Nc1ccc(SC(F)(F)F)cc1)Nc1cccc(F)c1 | 0.74 | – |
| O=C(Nc1ccc(OC(F)(F)F)cc1)Nc1cc(F)c(F)c(F)c1 | 0.99 | – |
| O=C(Nc1ccc(OC(F)(F)F)cc1)Nc1ccc(C(F)(F)F)cc1 | 2.37 | – |
| O=C(Nc1ccc(Cl)cc1)Nc1ccc(SC(F)(F)F)cc1 | 0.71 | – |
| O=C(Nc1ccc(SC(F)(F)F)cc1)Nc1ccc(F)c(Cl)c1 | 1.05 | – |
| O=C(Nc1ccc(SC(F)(F)F)cc1)Nc1cc(F)cc(F)c1 | 1.14 | – |
| O=C(Nc1ccc(SC(F)(F)F)cc1)Nc1ccc(C(F)(F)F)cc1 | 1.19 | – |
| O=C(Nc1ccc(SC(F)(F)F)cc1)Nc1ccc(SC(F)(F)F)c(Cl)c1 | 0.93 | – |
| O=C(Nc1ccc(SC(F)(F)F)cc1)Nc1ccc(Cl)c(C(F)(F)F)c1 | 1.64 | – |
| O=C(Nc1ccc(SC(F)(F)F)cc1)Nc1c(F)c(F)c(C(=O)O)c(F)c1F | 0.86 | – |
| N#Cc1cc(NC(=O)Nc2ccc(SC(F)(F)F)cc2)ccc1F | 0.96 | – |
| O=C(Nc1ccc(SC(F)(F)F)cc1)Nc1cccc(Cl)c1F | 0.72 | – |
| O=C(Nc1ccc(OC(F)(F)F)cc1)Nc1cc(F)c(F)c(F)c1F | 0.8 | – |
| O=C(Nc1ccc(OC(F)(F)F)cc1)Nc1cc(Cl)cc(Cl)c1 | 0.82 | – |
| O=C(Nc1ccc(C(F)(F)F)cc1)Nc1cc(F)c(F)c(F)c1 | 4 | – |

| Compound | fold change (FC) [1] | other results |
| --- | --- | --- |
| N#Cc1ccc(NC(=O)Nc2ccc(SC(F)(F)F)cc2)cc1 | 1.05 | – |
| O=C(Nc1ccc(OC(F)(F)F)cc1)Nc1ccc(SC(F)(F)F)c(Cl)c1 | 2.6 | – |
| CNC(=O)c1cc(Oc2ccc(NC(=O)Nc3ccc(Cl)c(C(F)(F)F)c3)cc2)ccn1 | – | inhibition [2]: Active; inhibition [3]: Active; Activity [4]: inactive |
| O=C(Nc1cc(Cl)cc(Cl)c1)Nc1cccc(SC(F)(F)F)c1 | 1.94 | – |
| O=C(Nc1ccc(SC(F)(F)F)cc1)Nc1cc(F)c(F)c(F)c1 | 2.02 | growth inhibition (GI) [5]: Active; growth inhibition (GI) [6]: Active |
| O=C(Nc1ccc(SC(F)(F)F)cc1)Nc1ccc(Cl)c(Cl)c1 | – | Activity [7]: inactive; inhibition [2]: Active; growth inhibition (GI) [5]: Active; growth inhibition (GI) [6]: Active; inhibition [3]: Active; Activity [4]: Active |
| O=C(Nc1ccc(SC(F)(F)F)cc1)Nc1ccc(F)c(C(F)(F)F)c1 | 1.52 | – |
| O=C(Nc1ccc(SC(F)(F)F)cc1)Nc1cc(Cl)c(Cl)c(Cl)c1 | 2.32 | – |
| O=C(Nc1ccc(OC(F)(F)F)cc1)Nc1cc(F)cc(F)c1 | 1.44 | – |
| O=C(Nc1ccc(OC(F)(F)F)cc1)Nc1cc(Cl)c(Cl)c(Cl)c1 | 0.96 | – |
| O=C(Nc1cc(F)cc(F)c1)Nc1cccc(SC(F)(F)F)c1 | 1.83 | – |
| O=C(Nc1ccc(C(F)(F)F)cc1)Nc1cccc(SC(F)(F)F)c1 | 2.16 | – |
| O=C(Nc1ccc(SC(F)(F)F)cc1)Nc1ccc(F)c(F)c1 | 1.11 | – |
| O=C(Nc1ccc(SC(F)(F)F)cc1)Nc1cc(F)c(F)c(F)c1F | 2.48 | – |
| O=C(Nc1ccc(SC(F)(F)F)cc1)Nc1cc(Cl)cc(Cl)c1 | 1.59 | – |

Source: ChEMBL document CHEMBL2331204, “Fluorinated N,N'-diarylureas as AMPK activators” (Bioorg Med Chem Lett, 2013)
